Test [1] concerns Mycobacterium tuberculosis. Put plainly: Antitubercular activity against low oxygen adapted Mycobacterium tuberculosis H37Rv. It counts as functional.
Test [2] concerns Mycobacterium tuberculosis. Put plainly: Antitubercular activity against multidrug resistant Mycobacterium tuberculosis. It counts as functional.

≈ marks a conversion by molar mass, not a printed value.

As for `COc1ccc(-c2cc(CN3CCSCC3)c(C)n2-c2ccc(F)cc2)cc1`, the MIC in test [1] worked out at 10.1 µM (≈ 4 µg/mL). `CC1(C)CCC(NC(=O)c2cc3c(F)cc(F)cc3[nH]2)CC1` gave a minimal inhibitory concentration (MIC) in test [2] below 0.04 µM. As for `Cc1c(CN2CCOCC2)cc(-c2ccc(C(C)C)cc2)n1-c1ccc(F)cc1`, in test [1], the minimum inhibitory concentration (MIC) was determined as 28.7 µM (≈ 11.3 µg/mL). `CC1(C)CCC(NC(=O)c2cc3c(Cl)cc(Cl)cc3[nH]2)CC1` displayed an MIC in test [2] below 0.04 µM.

One may read the MIC as the least concentration at which growth counts as inhibited. Lower therefore signals a more susceptible organism.

These data come from ChEMBL document CHEMBL5244240, “MmpL3 inhibitors as antituberculosis drugs” (Eur J Med Chem, 2020).
